Test results published in patent US10010560B2, “Small molecule HSP70 inhibitors” (THE TRUSTEES OF THE UNIVERSITY OF PENNSYLVANIA, priority 2014, dated 2018).

Key:
[1] = target: T1, full-length, nucleotide-free HSP70 protein (Homo sapiens, UniProt P0DMV8, E110D); assay: ITC binding to nucleotide-free full-length HSP70; conditions: average and s.d. of two experiments, read-out: dissociation constant
T1 construct: Full-length recombinant proteins of HSP70 (aa 1-641) as well as DnaK (aa 1-638); His6 (N); made in house; host or cells: E. coli BL21 Star (DE3)
Description: FIGS. 3A-3L illustrate that PET-16 binds directly to ADP-bound HSP70 and DnaK. Specifically, FIGS. 3A-3H are isothermal calorimetric titration (ITC) assays of the indicated compounds (NRLLLTG—SEQ ID NO: 7, PES or PET-16) with purified HSP70-ADP, DnaK-ADP or HSP70-ATP proteins. The data are representative of three independent experiments. FIGS. 3I and 3J are ITC assays for the interaction between HSP70 (aa 386-616 of SEQ ID NO: 2) protein and PET-16 (I) or TPP (J). Binding constants (Kd values) are shown (average and s.d. from three independent experiments). PET-16 also binds directly to the purified, full-length, nucleotide-free HSP70 protein, with a reported dissociation constant of 5.2+/−0.1 micromolar, which is the average and standard deviation from two independent experiments (data not shown). FIG. 3K is ITC assay of HSP70 protein preincubated with ADP and PES for 1 h. The mixture was titrated into the sample cell containing PET-16. The data are representative of three independent ITC experiments. FIG. 3L are western blots of human lung carcinoma (H1299) cells that were pretreated with DMSO or excess (8×) PET-16 for 1 h prior to the addition of 20 μM B-PES for 5 h and examined for the expression of HSP70 or BCL-xL. B-PES-containing complexes were captured by Avidin resins and immunoblotted either with anti-HSP70 or anti-BCL-xL antibody. […]

[2] = system: non-transformed cells (fibroblasts, primary melanocytes); assay: Viability of non-transformed cells; type: cell-based, human; conditions: at concentrations that inhibit tumor cell viability
Description: FIGS. 2A-2D illustrate the cytotoxicity of PET-16 to human tumor cells and its inhibition on E. coli growth. FIG. 2A is a line graph with data obtained from MTT assays of human melanoma cell lines treated with the indicated concentrations of PES or PET-16 for 72 h. The corresponding cell survival is normalized to vehicle (DMSO) treatment. Average and standard deviation (s.d.) from three independent experiments are shown. FIG. 2B are bar graphs of human melanoma (A875) cells and nontransformed human (IMR90) fibroblasts that were treated with DMSO, 10 μM PES or 10 μM PET-16 for 24 h. […] FIG. 2C is a line graph illustrating the growth of E. coli DH5α treated with different concentrations of PES or PET-16 for 6 h at 43° C. Error bars represent the s.d. of four independent experiments. FIG. 2D is a bar graph illustrating the growth of E. coli DH5α treated with DMSO, 30 μM PET-16 or 30 μM TPP for 6 h at 43° C. Error bars represent the s.d. of four independent experiments.

[3] = system: primary melanocytes and nontransformed human fibroblasts (IMR90); assay: Cellular ATP levels (AlamarBlue assay) in normal cells; type: cell-based
Description: FIGS. 5A-5F illustrates that PET-16 leads to loss of mitochondrial protein Cyclophilin D and impairs bioenergetics in tumor cells. FIGS. 5A-5D are western blots of HSP70, which is present at mitochondria of tumor H1299 cells but not in normal tissue, such as liver. The constitutively expressed 70 kDa family members, HSC70 and GRP75, are present in mitochondria of normal cells. Equal amounts of whole cell (WC)-, cytosolic (cyto)-, and mitochondrial (mito)-extracts prepared from cell lines H1299 (A, C) and MIA PaCa-2 (B) or normal (liver) cells (C, D) were examined by western blot analysis for the presence of the proteins indicated. […] Decreases of AlamarBlue® fluorescence, indicative of mitochondrial damage, are noted in PET-16-treated tumor cells (melanoma tumor cell line WM88 (-), melanoma tumor cell line WM3000 (×), melanoma tumor cell line WM852 (*), human melanoma 451 Lu cells (●), and melanoma tumor cell line WM989 (|), but not normal cells (nontransformed human fibroblasts (IMR90-♦) and primary melanocytes (▪)). Values are normalized to the vehicle-treated cells. Error bars represent standard deviation (s.d.) of four independent experiments.

T1 sequence (P0DMV8 whole entry E110D, the tested form may be a part): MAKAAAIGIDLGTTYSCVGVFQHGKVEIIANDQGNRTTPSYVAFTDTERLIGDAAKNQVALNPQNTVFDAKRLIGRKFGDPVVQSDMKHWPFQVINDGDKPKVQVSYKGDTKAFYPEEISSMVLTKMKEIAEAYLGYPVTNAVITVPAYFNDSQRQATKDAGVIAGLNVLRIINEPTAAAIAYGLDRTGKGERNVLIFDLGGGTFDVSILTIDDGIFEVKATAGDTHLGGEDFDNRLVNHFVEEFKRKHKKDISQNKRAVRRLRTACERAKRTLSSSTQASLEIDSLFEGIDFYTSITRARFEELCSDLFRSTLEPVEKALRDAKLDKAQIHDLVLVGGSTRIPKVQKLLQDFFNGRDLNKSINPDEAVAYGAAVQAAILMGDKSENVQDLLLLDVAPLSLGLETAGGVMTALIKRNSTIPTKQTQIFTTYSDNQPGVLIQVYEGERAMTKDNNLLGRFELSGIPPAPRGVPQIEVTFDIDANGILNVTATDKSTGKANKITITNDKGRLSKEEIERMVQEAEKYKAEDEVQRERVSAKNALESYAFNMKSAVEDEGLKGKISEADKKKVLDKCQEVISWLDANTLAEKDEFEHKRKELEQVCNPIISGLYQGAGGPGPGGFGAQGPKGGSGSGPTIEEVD

For C(#C[P+](c1ccccc1)(c1ccccc1)c1ccccc1)c1ccccc1.[Br-] [PET-16, triphenyl(phenylethynyl)phosphonium bromide], the Kd [1] was 5.2 µM, the “effect on viability of non-transformed cells” value [2] was “little effect” and the “total ATP levels” value [3] was “no decrease”.
